The structures appear in SMILES notation. A value given as a limit tells only on which side of the number the result lay.

In one data set the test system is C57BL/6 mice. In words: In vivo bioluminescence after intravenous administration of lipid nanoparticles encapsulating luciferase mRNA. The conditions noted are these: 0.5 mg/kg mRNA, liver. Here is the method:
The delivery effect and safety of nanoparticles encapsulating luciferase mRNA (Trilink, L-7202) in mice were evaluated. The test mice were SPF-grade C57BL/6 mice, female, 6-8 weeks old, weighing 18-22 g, and were purchased from SPF (Beijing) Biotechnology Co., Ltd. All animals were acclimatized for more than 7 days prior to the experiment, and had free access to food and water during the experiment. The conditions include alternating light and dark for 12/12 h, the indoor temperature of 20-26° C. and the humidity of 40-70%. The mice were randomly grouped. The lipid nanoparticles encapsulating luciferase mRNA prepared above were injected into mice by intravenous administration at a single dose of 0.5 mg/kg mRNA, and the mice were subjected to in vivo bioluminescence assay using a Small Animal In Vivo Imaging System (IVIS LUMINA III, purchased from PerkinElmer) at 6 h after administration. The assay was performed as follows: D-luciferin solution was prepared in saline at a concentration of 15 mg/mL, and each mouse was given the substrate by intraperitoneal injection. At ten minutes after administration of the substrate, the mice were anesthetized in an anesthesia chamber with isoflurane at a concentration of 2.5%. […] Data acquisition and analysis were performed on the liver.
The in vivo delivery efficiency of lipid nanoparticle carriers was expressed as the mean values of fluorescence intensity and total photon count in different animals within the same subject group, as shown in Table 4. Higher values of fluorescence intensity and total photon count indicate higher in vivo delivery efficiency of this mRNA fragment by lipid nanoparticles. The lipid nanoparticles containing the cationic lipids of the present disclosure have good in vivo delivery efficiency and mainly target the liver.

Data set [1] in a line: Particle size and PDI of lipid nanoparticles by dynamic light scattering. Format: physicochemical. The conditions noted are these: LNP ionizable lipid/cholesterol/DSPC/DMG-PEG2000 50/38.5/10/1.5 mol%, N/P 6, luciferase mRNA. The protocol: (§1) The particle size and particle size dispersity index (polydispersity index, PDI) of the prepared lipid nanoparticles were measured using a Zetasizer Pro (purchased from Malvern Instruments Ltd) and a DynaPro NanoStar (purchased from Wyatt) dynamic light scattering instrument. The degree of RNA encapsulation by lipid nanoparticles was characterized by the Encapsulation Efficiency %, which reflects the degree of binding of lipid nanoparticles to RNA fragments. This parameter was measured by the method of Quant-it™ RiboGreen RNA Assay (purchased from Invitrogen). Lipid nanoparticle samples were diluted in TE buffer (10 mM Tris-HCl, 1 mM EDTA, pH=7.5). A portion of the sample solution was removed, to which 0.5% Triton (Triton X-100) was added, and then allowed to stand at […] for 30 minutes. Immediately after the addition of RIBOGREEN® reaction solution, the fluorescence values were read on a Varioskan LUX multifunctional microplate reader (purchased from Thermofisher) at 485 nm for absorption and 528 nm for emission to give the encapsulation efficiency values.
The preparation of lipid nanoparticles includes microfluidic mixing system, but is not limited to this method, which also includes T-type mixer and ethanol injection method, etc.

A short description of data set [2]: Encapsulation efficiency of lipid nanoparticles, Quant-it RiboGreen RNA Assay. The conditions noted are these: LNP ionizable lipid/cholesterol/DSPC/DMG-PEG2000 50/38.5/10/1.5 mol%, N/P 6, luciferase mRNA. Format: physicochemical. Here is the method:
as §1
The produced lipid nanoparticles were characterized using the same method as in Assay example 2, and the results are shown in Table 6 (the percentage content of each component is represented by molar percentage).

In the case of `CCCCCCCCCSC(=O)C(C)(C)CCCCCC(CCCCCC(C)(C)C(=O)OCC#CCC(CCCC)CCCC)OC(=O)CCCN(C)C` (stereo not shown) [Compound 121], in the data set on C57BL/6 mice, the “Total photon count in vivo at 6 hours after administration (Total Flux)” value was over 4.00E+10. Moreover, in data set [1], the “Particle size (nm)” value was determined as 103.57 nm and the “Particle size dispersity (PDI)” value stood at 0.06. In addition, the “Encapsulation efficiency (%)” value in data set [2] amounted to 93.62%.

The values are drawn from patent US20240245617A1, “LIPID-BASED TOPICAL INJECTION FORMULATIONS” (Beijing Jitai Pharmaceutical Technology Co., Ltd., priority 2022, published 2024).
